“And” between values parts separate entries of the source, which are not always exact repeats. Equal values may be shown once.
Legend:
Assay in all cases: biochemical
Type in all cases: biochemical
[1] = molecular target: various kinases (Homo sapiens, UniProt O60674)
[2] = molecular target: various kinases (Homo sapiens, UniProt P06213); settings: INSR
[3] = molecular target: various kinases (Homo sapiens, UniProt P12931); settings: kinase SRC; ZLYTE
[4] = molecular target: various kinases (Homo sapiens, UniProt P17252); settings: kinase PRKCA (PKC alpha); ZLYTE
[5] = molecular target: various kinases (Homo sapiens, UniProt P23458); settings: JAK1
various kinases (Homo sapiens, UniProt P23458), sequence (P23458 whole entry): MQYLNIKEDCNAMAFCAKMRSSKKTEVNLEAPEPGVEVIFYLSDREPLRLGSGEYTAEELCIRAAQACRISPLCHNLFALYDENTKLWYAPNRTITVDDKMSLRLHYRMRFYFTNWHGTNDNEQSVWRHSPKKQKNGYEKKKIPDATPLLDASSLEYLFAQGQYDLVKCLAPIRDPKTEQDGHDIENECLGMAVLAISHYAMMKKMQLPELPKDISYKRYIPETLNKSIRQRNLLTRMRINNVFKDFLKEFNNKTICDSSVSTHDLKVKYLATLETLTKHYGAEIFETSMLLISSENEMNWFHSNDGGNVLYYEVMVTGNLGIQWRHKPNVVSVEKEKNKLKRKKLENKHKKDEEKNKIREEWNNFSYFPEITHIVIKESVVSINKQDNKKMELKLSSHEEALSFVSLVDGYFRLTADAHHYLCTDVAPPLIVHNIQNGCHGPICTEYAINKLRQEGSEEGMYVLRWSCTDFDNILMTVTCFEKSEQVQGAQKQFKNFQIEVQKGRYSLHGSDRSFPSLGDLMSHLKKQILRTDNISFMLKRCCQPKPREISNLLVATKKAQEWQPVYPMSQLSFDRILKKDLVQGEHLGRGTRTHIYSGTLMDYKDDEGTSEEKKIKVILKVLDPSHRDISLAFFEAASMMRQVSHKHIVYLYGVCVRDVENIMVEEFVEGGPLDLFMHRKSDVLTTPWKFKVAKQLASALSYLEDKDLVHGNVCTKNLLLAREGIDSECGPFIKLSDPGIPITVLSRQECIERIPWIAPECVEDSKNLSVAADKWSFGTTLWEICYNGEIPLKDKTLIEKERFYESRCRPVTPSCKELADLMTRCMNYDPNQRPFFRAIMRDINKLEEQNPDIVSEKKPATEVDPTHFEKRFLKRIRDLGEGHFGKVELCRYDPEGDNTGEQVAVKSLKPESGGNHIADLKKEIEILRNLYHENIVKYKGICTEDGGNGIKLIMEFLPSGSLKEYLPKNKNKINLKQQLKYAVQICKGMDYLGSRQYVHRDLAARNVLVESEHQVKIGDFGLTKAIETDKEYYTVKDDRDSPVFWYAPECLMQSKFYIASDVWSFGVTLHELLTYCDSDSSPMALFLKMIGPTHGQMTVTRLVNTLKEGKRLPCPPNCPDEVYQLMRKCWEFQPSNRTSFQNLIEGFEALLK

[6] = molecular target: various kinases (Homo sapiens, UniProt P29322); settings: EPHA8
[7] = molecular target: various kinases (Homo sapiens, UniProt P29376); settings: LTK (TYK1)
[8] = molecular target: various kinases (Homo sapiens, UniProt P51451); settings: BLK
various kinases (Homo sapiens, UniProt P51451), sequence (P51451 whole entry): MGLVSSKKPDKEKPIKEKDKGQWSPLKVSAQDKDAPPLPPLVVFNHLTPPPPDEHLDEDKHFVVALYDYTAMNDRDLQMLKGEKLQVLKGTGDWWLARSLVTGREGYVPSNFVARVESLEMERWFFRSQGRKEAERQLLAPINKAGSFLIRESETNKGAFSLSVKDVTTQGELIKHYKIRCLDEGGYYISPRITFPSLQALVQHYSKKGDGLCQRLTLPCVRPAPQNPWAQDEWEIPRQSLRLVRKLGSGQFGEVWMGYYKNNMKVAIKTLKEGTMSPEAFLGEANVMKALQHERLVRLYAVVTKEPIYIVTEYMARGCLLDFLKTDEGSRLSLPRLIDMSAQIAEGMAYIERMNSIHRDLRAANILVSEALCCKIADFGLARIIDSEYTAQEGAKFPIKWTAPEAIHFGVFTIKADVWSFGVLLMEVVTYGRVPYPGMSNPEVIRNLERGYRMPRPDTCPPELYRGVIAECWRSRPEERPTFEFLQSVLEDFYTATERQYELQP

[9] = molecular target: various kinases (Homo sapiens, UniProt P52333); settings: JAK3
[10] = molecular target: various kinases (Homo sapiens, UniProt P54753); settings: EPHB3
[11] = molecular target: various kinases (Homo sapiens, UniProt P54760); settings: EPHB4
[12] = molecular target: various kinases (Homo sapiens, UniProt P78362); settings: kinase SRPK2; ZLYTE
various kinases (Homo sapiens, UniProt P78362), sequence (P78362 whole entry): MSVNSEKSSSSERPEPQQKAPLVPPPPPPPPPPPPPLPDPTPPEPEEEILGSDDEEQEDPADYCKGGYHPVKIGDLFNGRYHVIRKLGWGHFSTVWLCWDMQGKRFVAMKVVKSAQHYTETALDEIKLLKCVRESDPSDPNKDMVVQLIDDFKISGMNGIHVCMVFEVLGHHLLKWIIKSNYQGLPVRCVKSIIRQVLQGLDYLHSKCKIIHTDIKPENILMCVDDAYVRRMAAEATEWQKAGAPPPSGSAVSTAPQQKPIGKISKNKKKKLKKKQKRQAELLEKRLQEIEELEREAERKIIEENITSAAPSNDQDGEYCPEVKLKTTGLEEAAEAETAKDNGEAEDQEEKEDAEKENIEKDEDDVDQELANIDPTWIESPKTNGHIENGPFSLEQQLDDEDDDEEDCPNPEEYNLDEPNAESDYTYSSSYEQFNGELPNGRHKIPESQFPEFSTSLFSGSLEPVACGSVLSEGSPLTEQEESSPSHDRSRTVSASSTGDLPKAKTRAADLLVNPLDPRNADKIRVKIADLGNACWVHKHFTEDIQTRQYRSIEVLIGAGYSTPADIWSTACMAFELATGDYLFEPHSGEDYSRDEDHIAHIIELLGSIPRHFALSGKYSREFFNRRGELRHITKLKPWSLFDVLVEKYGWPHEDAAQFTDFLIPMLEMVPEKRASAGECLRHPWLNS

[13] = molecular target: various kinases (Homo sapiens, UniProt P78527); settings: DNA-PK
[14] = molecular target: various kinases (Homo sapiens, UniProt Q04759); settings: kinase PRKCQ (PKC theta); ZLYTE
various kinases (Homo sapiens, UniProt Q04759), sequence (Q04759 whole entry): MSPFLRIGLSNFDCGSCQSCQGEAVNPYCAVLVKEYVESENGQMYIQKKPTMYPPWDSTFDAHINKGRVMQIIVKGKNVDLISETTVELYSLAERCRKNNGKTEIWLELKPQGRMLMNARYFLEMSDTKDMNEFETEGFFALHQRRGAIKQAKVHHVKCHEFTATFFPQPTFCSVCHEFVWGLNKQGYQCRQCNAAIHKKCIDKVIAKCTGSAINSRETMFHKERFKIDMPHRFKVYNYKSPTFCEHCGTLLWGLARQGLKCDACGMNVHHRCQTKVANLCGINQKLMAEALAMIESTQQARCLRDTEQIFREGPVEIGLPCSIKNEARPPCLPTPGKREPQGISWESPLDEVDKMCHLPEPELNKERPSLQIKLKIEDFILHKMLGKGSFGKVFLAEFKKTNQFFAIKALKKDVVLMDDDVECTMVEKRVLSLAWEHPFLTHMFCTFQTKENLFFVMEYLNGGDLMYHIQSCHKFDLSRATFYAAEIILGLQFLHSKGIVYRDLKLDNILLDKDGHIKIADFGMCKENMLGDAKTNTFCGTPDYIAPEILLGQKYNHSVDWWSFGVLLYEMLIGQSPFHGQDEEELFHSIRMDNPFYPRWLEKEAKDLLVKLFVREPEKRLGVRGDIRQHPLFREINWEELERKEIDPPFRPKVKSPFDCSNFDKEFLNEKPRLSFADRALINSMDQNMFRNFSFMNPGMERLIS

[15] = molecular target: various kinases (Homo sapiens, UniProt Q08881); settings: ITK
various kinases (Homo sapiens, UniProt Q08881), sequence (Q08881 whole entry): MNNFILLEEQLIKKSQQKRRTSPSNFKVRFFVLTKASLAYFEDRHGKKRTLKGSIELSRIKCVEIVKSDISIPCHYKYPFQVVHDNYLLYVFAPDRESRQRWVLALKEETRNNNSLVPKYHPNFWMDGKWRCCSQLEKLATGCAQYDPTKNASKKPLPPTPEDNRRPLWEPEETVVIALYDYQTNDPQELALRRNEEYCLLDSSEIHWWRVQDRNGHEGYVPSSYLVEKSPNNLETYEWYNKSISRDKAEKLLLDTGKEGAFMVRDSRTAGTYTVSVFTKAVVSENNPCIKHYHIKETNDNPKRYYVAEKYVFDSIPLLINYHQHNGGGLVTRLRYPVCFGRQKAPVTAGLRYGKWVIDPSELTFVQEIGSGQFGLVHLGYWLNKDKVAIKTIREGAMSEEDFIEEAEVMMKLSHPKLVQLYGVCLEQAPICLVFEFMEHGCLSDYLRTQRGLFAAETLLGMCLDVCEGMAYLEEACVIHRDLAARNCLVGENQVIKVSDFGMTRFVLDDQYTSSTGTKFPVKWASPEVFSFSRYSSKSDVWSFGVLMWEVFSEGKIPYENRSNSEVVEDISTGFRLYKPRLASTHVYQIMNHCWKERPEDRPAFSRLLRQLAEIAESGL

[16] = molecular target: various kinases (Homo sapiens, UniProt Q13164); settings: MAPK7 (ERK5)
[17] = molecular target: T1, various kinases (Homo sapiens, UniProt Q13470); settings: kinase TNK1; ZLYTE
T1 sequence (Q13470 1-666): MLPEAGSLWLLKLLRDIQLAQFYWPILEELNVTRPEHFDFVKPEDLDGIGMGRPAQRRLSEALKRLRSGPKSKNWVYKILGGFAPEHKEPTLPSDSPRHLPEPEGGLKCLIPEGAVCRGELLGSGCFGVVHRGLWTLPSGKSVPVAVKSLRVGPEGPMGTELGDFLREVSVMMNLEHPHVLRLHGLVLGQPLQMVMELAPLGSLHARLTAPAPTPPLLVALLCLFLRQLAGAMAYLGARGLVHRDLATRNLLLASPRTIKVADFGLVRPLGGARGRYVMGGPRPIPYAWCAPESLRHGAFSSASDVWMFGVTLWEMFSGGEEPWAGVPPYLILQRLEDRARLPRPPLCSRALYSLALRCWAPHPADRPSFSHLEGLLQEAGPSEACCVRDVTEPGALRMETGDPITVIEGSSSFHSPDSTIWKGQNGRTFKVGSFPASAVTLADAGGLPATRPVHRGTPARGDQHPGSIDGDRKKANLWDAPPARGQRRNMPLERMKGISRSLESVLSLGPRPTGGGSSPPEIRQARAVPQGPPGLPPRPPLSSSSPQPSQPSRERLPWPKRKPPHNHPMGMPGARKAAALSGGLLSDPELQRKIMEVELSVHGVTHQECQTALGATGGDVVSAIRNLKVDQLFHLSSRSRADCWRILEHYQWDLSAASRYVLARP

[18] = molecular target: T2, various kinases (Homo sapiens, UniProt Q13976); settings: kinase PRKG1; ZLYTE
T2 sequence (Q13976 1-671): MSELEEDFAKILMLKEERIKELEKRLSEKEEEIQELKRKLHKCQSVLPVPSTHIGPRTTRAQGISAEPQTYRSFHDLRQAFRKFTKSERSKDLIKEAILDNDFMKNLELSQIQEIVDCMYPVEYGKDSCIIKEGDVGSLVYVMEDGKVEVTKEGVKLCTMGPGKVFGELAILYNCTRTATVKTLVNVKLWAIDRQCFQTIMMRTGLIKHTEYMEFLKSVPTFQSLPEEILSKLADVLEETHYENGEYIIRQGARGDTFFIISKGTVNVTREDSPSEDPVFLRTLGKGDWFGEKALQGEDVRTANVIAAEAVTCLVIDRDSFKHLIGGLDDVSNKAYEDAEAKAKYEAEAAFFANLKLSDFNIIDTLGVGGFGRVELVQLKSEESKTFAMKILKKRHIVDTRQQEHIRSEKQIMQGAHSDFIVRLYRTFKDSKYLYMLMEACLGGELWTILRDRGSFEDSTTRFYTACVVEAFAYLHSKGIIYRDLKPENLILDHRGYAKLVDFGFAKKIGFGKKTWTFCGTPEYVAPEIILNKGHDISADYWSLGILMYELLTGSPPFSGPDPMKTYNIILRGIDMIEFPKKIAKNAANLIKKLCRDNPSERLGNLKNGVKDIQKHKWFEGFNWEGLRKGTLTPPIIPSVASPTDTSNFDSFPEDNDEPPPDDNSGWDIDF

[19] = molecular target: various kinases (Homo sapiens, UniProt Q14164); settings: IKBKE (IKK epsilon)
[20] = molecular target: various kinases (Homo sapiens, UniProt Q8IW41); settings: MAPKAPK5 (PRAK)
[21] = molecular target: various kinases (Homo sapiens, UniProt Q9H1R3); settings: MYLK2 (skMLCK)
[22] = molecular target: various kinases (Homo sapiens, UniProt Q9Y5S2); settings: CDC42 BPB (MRCKB)
Wherever % Inhibition Average is given: test concentration or dose not given here.
Wherever % Inhibition Duplicate #1 is given: test concentration or dose not given here.
Wherever % Inhibition Duplicate #2 is given: test concentration or dose not given here.

various kinases (Homo sapiens, UniProt P12931), sequence (P12931 whole entry): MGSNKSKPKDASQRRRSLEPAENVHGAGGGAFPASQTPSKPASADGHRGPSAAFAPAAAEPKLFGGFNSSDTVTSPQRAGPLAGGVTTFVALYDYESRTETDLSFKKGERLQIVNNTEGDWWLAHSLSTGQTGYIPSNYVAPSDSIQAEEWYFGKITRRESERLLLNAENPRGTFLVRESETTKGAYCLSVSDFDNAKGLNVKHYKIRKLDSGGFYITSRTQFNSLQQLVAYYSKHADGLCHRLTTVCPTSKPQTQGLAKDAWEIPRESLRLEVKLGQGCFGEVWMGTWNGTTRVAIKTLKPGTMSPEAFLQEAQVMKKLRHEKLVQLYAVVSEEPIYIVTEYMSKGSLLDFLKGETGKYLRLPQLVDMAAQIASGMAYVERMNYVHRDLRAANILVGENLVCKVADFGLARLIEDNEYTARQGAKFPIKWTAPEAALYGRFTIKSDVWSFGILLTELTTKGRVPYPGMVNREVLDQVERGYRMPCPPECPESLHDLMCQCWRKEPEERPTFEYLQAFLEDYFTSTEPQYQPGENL

Question: Which “% Inhibition” value ([1]; JAK2) does the source give for `COc1ccc2c(c1)[C@]1(C[C@H]1c1ccc3c(/C=C/c4ccc(CN5C[C@@H](C)O[C@@H](C)C5)cc4)n[nH]c3c1)C(=O)N2` [CFI-400945] here?
Answer: 9%

Question: What about the “% Inhibition” value ([1]; JAK2 JH1 JH2) of the same compound?
Answer: 7%

Question: And the “% Inhibition” value [2]?
Answer: 4% and 10%

Question: What about the “% Inhibition Average” value [3] of the same compound?
Answer: 13%

Question: What about the “% Inhibition Duplicate #1” value [3] of the same compound?
Answer: 13%

Question: And the “% Inhibition Duplicate #2” value [3]?
Answer: 13%

Question: And the “% Inhibition Average” value [4]?
Answer: 5%

Question: And the “% Inhibition Duplicate #1” value [4]?
Answer: -1%

Question: What about the “% Inhibition Duplicate #2” value [4] of the same compound?
Answer: 12%

Question: And the “% Inhibition” value [5]?
Answer: 1% and 0%

Question: And the “% Inhibition” value [6]?
Answer: -5% and 0%

Question: What about the “% Inhibition” value [7] of the same compound?
Answer: 68%

Question: And the “% Inhibition” value [8]?
Answer: 9% and 14%

Question: What about the “% Inhibition” value [9] of the same compound?
Answer: 23%

Question: What about the “% Inhibition” value [10] of the same compound?
Answer: 3% and 2%

Question: And the “% Inhibition” value [11]?
Answer: 5% and 8%

Question: What about the “% Inhibition Average” value [12] of the same compound?
Answer: 7%

Question: What about the “% Inhibition Duplicate #1” value [12] of the same compound?
Answer: 10%

Question: And the “% Inhibition Duplicate #2” value [12]?
Answer: 4%

Question: What about the “% Inhibition” value [13] of the same compound?
Answer: 3% and 1%

Question: And the “% Inhibition Average” value [14]?
Answer: 7%

Question: And the “% Inhibition Duplicate #1” value [14]?
Answer: 1%

Question: What about the “% Inhibition Duplicate #2” value [14] of the same compound?
Answer: 13%

Question: What about the “% Inhibition” value [15] of the same compound?
Answer: 56% and 53%

Question: And the IC50 [15]?
Answer: 200 nM

Question: What about the “% Inhibition” value [16] of the same compound?
Answer: -2% and 0%

Question: And the “% Inhibition Average” value [17]?
Answer: 30%

Question: And the “% Inhibition Duplicate #1” value [17]?
Answer: 26%

Question: And the “% Inhibition Duplicate #2” value [17]?
Answer: 34%

Question: What about the “% Inhibition Average” value [18] of the same compound?
Answer: 5%

Question: What about the “% Inhibition Duplicate #1” value [18] of the same compound?
Answer: 6%

Question: What about the “% Inhibition Duplicate #2” value [18] of the same compound?
Answer: 4%

Question: And the “% Inhibition” value [19]?
Answer: -1% and 1%

Question: And the “% Inhibition” value [20]?
Answer: 2% and 4%

Question: What about the “% Inhibition” value [21] of the same compound?
Answer: 6% and 7%

Question: And the “% Inhibition” value [22]?
Answer: -1% and 2%
